Measured values as given in PubChem BioAssay AID330 (DTP/NCI, 2004).
Where “and” joins values, the source holds several entries; their conditions need not be identical. Identical values can stand only once. Inconclusive results and toxic doses are left out.

Tested on: P388 leukemia ip, CD2F1 mice, survival T/C
Assay: NCI In Vivo Anticancer Drug Screen. Data for tumor model P388 Leukemia (intraperitoneal) in CD2F1 (CDF1) mice
Conditions: endpoint: median survival time, higher = longer survival
Outline: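 Mice carrying the transplanted tumor received test compound or vehicle. Survival was recorded in each group, and the value is the treated-group measurement divided by that of the vehicle-treated control group.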

[1] = dose: 60.0 mg/kg/injection, schedule: Q01DX005 (ip), vehicle: saline with Tween-80
[2] = dose: 50.0 mg/kg/injection, schedule: Q01DX009 (ip), vehicle: saline with Tween-80
[3] = dose: 8.0 mg/kg/injection, schedule: Q01DX009 (ip), vehicle: saline with Tween-80
[4] = dose: 100.0 mg/kg/injection, schedule: Q01DX009 (ip), vehicle: saline with Tween-80
[5] = dose: 120.0 mg/kg/injection, schedule: Q01DX005 (ip), vehicle: saline with Tween-80
[6] = dose: 240.0 mg/kg/injection, schedule: Q01DX005 (ip), vehicle: saline with Tween-80

In the case of `C/C=C/C=C\C=C/C(O)CC(OP(=O)(O)O)C(C)(O)/C=C/C1CC=CC(=O)O1` (stereo unspecified), the T/C (dose: 0.75 mg/kg/injection, schedule: Q01DX005 (ip), vehicle: water) is reported as 116 % of control, the T/C (dose: 1.5 mg/kg/injection, schedule: Q01DX005 (ip), vehicle: water) is reported as 119 % of control and the T/C (dose: 6.25 mg/kg/injection, schedule: Q01DX005 (ip), vehicle: water) is reported as 183 % of control.

For `CC(=O)O.Cl.NC1C([O-])OC(CO)C(O)C1O.O=C1OC(C(O)CO)C([O-])=C1[OH2+].[Cu+2]` (stereo unspecified), the T/C (dose: 3.75 mg/kg/injection, schedule: Q01DX005 (ip), vehicle: saline with Tween-80) was 107 % of control, the T/C (dose: 7.5 mg/kg/injection, schedule: Q01DX005 (ip), vehicle: saline with Tween-80) was 100 % of control and the T/C (dose: 15.0 mg/kg/injection, schedule: Q01DX005 (ip), vehicle: saline with Tween-80) was 98 % of control and 97 % of control. The T/C [1] was 108 % of control.

With `O=C(NC(=S)c1ccc(Br)cc1)Nc1ccc(Cl)c(Cl)c1` the T/C (dose: 12.5 mg/kg/injection, schedule: Q01DX009 (ip), vehicle: saline with Tween-80) was 96 % of control, the T/C (dose: 25.0 mg/kg/injection, schedule: Q01DX009 (ip), vehicle: saline with Tween-80) was 98 % of control and the T/C [2] was 106 % of control.

`Nc1ccc2nc3ccc(N)cc3[n+](-c3ccccc3)c2c1` was tested, and the T/C (dose: 0.39 mg/kg/injection, schedule: Q04DX003 (ip), vehicle: saline) was 100 % of control, the T/C (dose: 0.78 mg/kg/injection, schedule: Q04DX003 (ip), vehicle: saline) was 95 % of control and the T/C (dose: 1.56 mg/kg/injection, schedule: Q04DX003 (ip), vehicle: saline) was 95 % of control. The T/C (dose: 3.13 mg/kg/injection, schedule: Q04DX003 (ip), vehicle: saline) was 95 % of control, the T/C (dose: 6.25 mg/kg/injection, schedule: Q04DX003 (ip), vehicle: saline) was 95 % of control and the T/C [3] was 154 % of control. For the same molecule, the T/C (dose: 12.0 mg/kg/injection, schedule: Q01DX009 (ip), vehicle: saline with Tween-80) was 154 % of control, the T/C (dose: 12.5 mg/kg/injection, schedule: Q04DX003 (ip), vehicle: saline) was 95 % of control and the T/C (dose: 18.0 mg/kg/injection, schedule: Q01DX009 (ip), vehicle: saline with Tween-80) was 86 % of control.

In the case of `Cc1cc(Nc2ccc(N(C)C)cc2)c2cc(N(C)C)ccc2n1`, the T/C [2] is reported as 96 % of control and the T/C [4] is reported as 107 % of control.

With `CNc1nc(SC)nc2c1ncn2C1CCCO1` (stereo unspecified) the T/C (dose: 100.0 mg/kg/injection, schedule: Q04DX002 (ip), vehicle: saline with Tween-80) was 98 % of control, the T/C (dose: 200.0 mg/kg/injection, schedule: Q04DX002 (ip), vehicle: saline with Tween-80) was 95 % of control and the T/C (dose: 400.0 mg/kg/injection, schedule: Q04DX002 (ip), vehicle: saline with Tween-80) was 95 % of control.

With `COc1cc(N=Nc2ccc([N+](=O)[O-])cc2)c([OH+]C)cc1[N+]#N.COc1cc(N=Nc2ccc([N+](=O)[O-])cc2)c([OH+]C)cc1[N+]#N.[Cl][Zn][Cl]` the T/C (dose: 50.0 mg/kg/injection, schedule: Q01DX009 (ip), vehicle: saline) was 110 % of control and 112 % of control and 117 % of control, the T/C (dose: 100.0 mg/kg/injection, schedule: Q01DX009 (ip), vehicle: saline) was 111 % of control and 117 % of control and 119 % of control and the T/C (dose: 200.0 mg/kg/injection, schedule: Q01DX009 (ip), vehicle: saline) was 116 % of control and 119 % of control. The T/C (dose: 400.0 mg/kg/injection, schedule: Q01DX009 (ip), vehicle: saline) was 107 % of control.

In the case of `CSc1nc(SC)c2c(C)c(Br)[nH]c2n1`, the T/C (dose: 100.0 mg/kg/injection, schedule: Q01DX001 (ip), vehicle: saline with Tween-80) is reported as 94 % of control, the T/C (dose: 200.0 mg/kg/injection, schedule: Q01DX001 (ip), vehicle: saline with Tween-80) is reported as 94 % of control and the T/C (dose: 400.0 mg/kg/injection, schedule: Q01DX001 (ip), vehicle: saline with Tween-80) is reported as 89 % of control.

In the case of `CCCCSc1n[nH]c(C2CCC(=O)N2Cc2ccccc2)n1` (stereo unspecified), the T/C [1] is reported as 100 % of control, the T/C [5] is reported as 93 % of control and the T/C [6] is reported as 91 % of control.

With `O=C(O)c1cocc1C(=O)N1Cc2cc3ccccc3nc2C1` the T/C [3] was 94 % of control, the T/C (dose: 16.0 mg/kg/injection, schedule: Q01DX009 (ip), vehicle: saline with Tween-80) was 92 % of control and the T/C (dose: 32.0 mg/kg/injection, schedule: Q01DX009 (ip), vehicle: saline with Tween-80) was 94 % of control. The T/C (dose: 64.0 mg/kg/injection, schedule: Q01DX009 (ip), vehicle: saline with Tween-80) was 108 % of control and the T/C (dose: 128.0 mg/kg/injection, schedule: Q01DX009 (ip), vehicle: saline with Tween-80) was 103 % of control.

`CCOP(=S)(OCC)Oc1cc(C)nc(C(C)C)n1` was tested, and the T/C [2] was 112 % of control and the T/C [4] was 111 % of control.

With `COc1cc([C@H]2c3c(cc(OC)c(OC)c3OC)CC3COC(=O)[C@@H]32)cc(Br)c1O` (stereo partly specified) the T/C [1] was 101 % of control, the T/C [5] was 95 % of control and the T/C [6] was 98 % of control.

For `O=S1(=O)CCN(Cc2ccco2)CC1`, the T/C (dose: 50.0 mg/kg/injection, schedule: Q01DX009 (ip), vehicle: Klucel (hydroxypropylcellulose) (HPC)) was 100 % of control and the T/C (dose: 100.0 mg/kg/injection, schedule: Q01DX009 (ip), vehicle: Klucel (hydroxypropylcellulose) (HPC)) was 99 % of control.
